Here are results for three molecules from US4628043A, “Hypothalamic GRF agonists” (The Salk Institute for Biological Studies, priority 1985, dated 1986).

Experiment [1] has as its system cells of rat pituitary glands. Nature of the experiment: in vitro GH release assay in cultured rat pituitary cells, hpGRF(1-40)-OH as standard. The class given is cell-based. To be noted: for Comparison %: GH release at equimolar concentrations relative to hpGRF(1-40)-OH standard (100%), incubation 3 to 4 hours, ir GH by radioimmunoassay. How it is done:
To determine the effectiveness of the various synthetic peptides to promote the release of growth hormone, in vitro assays are carried out using synthetic hpGRF(1-40)--OH as a standard in side-by-side comparison with equimolar concentrations of the various other analogs and fragments synthesized. Cultures are used which include cells of rat pituitary glands removed some three to five days previously. Cultures which are considered optimal for the secretion of growth hormone are used for the comparative testing, in the general manner described in Vale et al. Endocrinology, 91, 562-572 (1972) and as more particularly described in Vale et al. Endocrinology, (1983), in press. Incubation with the substance to be tested is carried out for 3 to 4 hours, and aliquots of the culture medium are removed and processed to measure their contents in immunoreactive GH(ir GH) by a well-characterized radioimmunoassay.

The subject of experiment [2] is freely running normal male rats. The experiment in a line: in vivo GH secretion after injection through an indwelling catheter, FLA-63 pretreated rats. Also on record: species or system rat. To be noted: blood GH by radioimmunoassay prior to and 5 and 20 minutes after injection; result in words. The method, then:
In addition to the in vitro tests for secretion of growth hormone, in vivo experiments are also run by injecting the synthetic peptide through an indwelling catheter into freely running normal male rats. Animals are pretreated with FLA-63, a dopamine hydroxylase inhibitor that suppresses spontaneous GH secretion without affecting the response to exogenous GRF. Blood samples are taken through the same catheter immediately prior to and 5 and 20 minutes after injections; GH levels in blood are measured by radioimmunoassay. […] Dosages between about 40 nanograms and about 25 micrograms per Kg. of body weight are considered to be effective in causing secretion.

Square brackets hold non-standard residues; d marks the D form. Ends that are not written are not given here. Peptide text beside a SMILES is read from it. Nle = CCCC[C@H](N)C(=O)O

In turn, `CCCC[C@H](NC(=O)[C@@H](NC(=O)[C@H](CC(=O)O)NC(=O)[C@H](CCC(N)=O)NC(=O)[C@H](CC(C)C)NC(=O)[C@H](CC(C)C)NC(=O)[C@H](CCCCN)NC(=O)[C@H](CCCNC(=N)N)NC(=O)[C@H](C)NC(=O)[C@H](CO)NC(=O)[C@H](CC(C)C)NC(=O)[C@H](CCC(N)=O)NC(=O)CNC(=O)[C@H](CC(C)C)NC(=O)[C@@H](NC(=O)[C@H](CCCCN)NC(=O)[C@H](CCCNC(=N)N)NC(=O)[C@H](Cc1ccc(O)cc1)NC(=O)[C@H](CO)NC(=O)[C@H](CC(N)=O)NC(=O)[C@@H](NC(=O)[C@H](Cc1ccccc1)NC(=O)[C@@H](NC(=O)[C@H](C)NC(=O)[C@H](CC(=O)O)NC(=O)[C@H](C)NC(=O)[C@@H](N)Cc1ccc(O)cc1)[C@@H](C)CC)[C@@H](C)O)C(C)C)[C@@H](C)CC)C(=O)N[C@@H](CC(N)=O)C(=O)N[C@@H](CCCNC(=N)N)C(N)=O` [[Nle^27,Asn^28]--hGRF(1-29)-NH2, H--Tyr--Ala--Asp--Ala--Ile--Phe--Thr--Asn--Ser--Tyr--Arg--Lys--Val--Leu--Gly--Gln--Leu--Ser--Ala--Arg--Lys--Leu--Leu--Gln--Asp--Ile--Nle--Asn--Arg--NH2] (H-YADAIFTNSYRKVLGQLSARKLLQDI[Nle]NR-NH2) displayed a Comparison % in experiment [1] of 520%.

`CC[C@H](C)[C@H](NC(=O)[C@H](C)NC(=O)[C@H](CC(=O)O)NC(=O)[C@H](C)NC(=O)[C@@H](N)Cc1c[nH]cn1)C(=O)N[C@@H](Cc1ccccc1)C(=O)N[C@H](C(=O)N[C@@H](CO)C(=O)N[C@@H](CO)C(=O)N[C@@H](Cc1ccc(O)cc1)C(=O)N[C@@H](CCCNC(=N)N)C(=O)N[C@@H](CCCNC(=N)N)C(=O)N[C@H](C(=O)N[C@@H](CC(C)C)C(=O)NCC(=O)N[C@@H](CCC(N)=O)C(=O)N[C@@H](CC(C)C)C(=O)N[C@@H](Cc1ccc(O)cc1)C(=O)N[C@@H](C)C(=O)N[C@@H](CCCNC(=N)N)C(=O)N[C@@H](CCCCN)C(=O)N[C@@H](CC(C)C)C(=O)N[C@@H](CC(C)C)C(=O)N[C@@H](Cc1c[nH]cn1)C(=O)N[C@@H](CCC(=O)O)C(=O)N[C@H](C(=O)N[C@@H](CCSC)C(=O)N[C@@H](CC(N)=O)C(=O)N[C@@H](CCCNC(=N)N)C(=O)N[C@@H](CCC(N)=O)C(=O)N[C@@H](CCC(N)=O)C(=O)NCC(=O)N[C@@H](CCC(=O)O)C(=O)N[C@@H](CCCNC(=N)N)C(=O)N[C@@H](CC(N)=O)C(=O)N[C@@H](CCC(N)=O)C(=O)N[C@@H](CCC(=O)O)C(=O)N[C@@H](CCC(N)=O)C(=O)N[C@@H](CCCNC(=N)N)C(=O)N[C@@H](CO)C(=O)N[C@@H](CCCNC(=N)N)C(=O)N[C@@H](Cc1ccccc1)C(=O)N[C@@H](CC(N)=O)C(=O)O)[C@@H](C)CC)[C@@H](C)CC)[C@@H](C)O` [rGRF(1-43)--OH, H--His--Ala--Asp--Ala--Ile--Phe--Thr--Ser--Ser--Tyr--Arg--Arg--Ile--Leu--Gly--Gln--Leu--Tyr--Ala--Arg--Lys--Leu--Leu--His--Glu--Ile--Met--Asn--Arg--Gln--Gln--Gly--Glu--Arg--Asn--Gln--Glu--Gln--Arg--Ser--Arg--Phe--Asn--OH]: the maximum effective concentration in experiment [1] (in vitro GH secretion, cultured rat pituitary cells) was 1 nM. In addition, the “release of GH from cultured pituitary cells” value in experiment [1] (result in words) was “releases GH from cultured pituitary cells”. In addition, the “stimulation of the secretion of pituitary GH in vivo” value in experiment [2] is listed as “powerful stimulators of the secretion of pituitary GH”.

In turn, “npGRF(1-40)-OH: synthetic hpGRF(1-40)--OH used as a standard in the in vitro assays (YADAIFTNSYRKVLGQLSARKLLQDIMSRQQGESNQERGA-OH; UniProt P01286 32-71, looked up, fragment) [reference compound]” displayed a Comparison % in experiment [1] of 100%.
